Experimental data as given in ChEMBL document CHEMBL3758072, “Amphiphilic nanoparticles of resveratrol-norcantharidin to enhance the toxicity in zebrafish embryo” (Bioorg Med Chem Lett, 2016).
Calls of active or inactive are those of the source. The calls are words filed in the database; no cut-off is given here.

Legend:
Danio rerio [1] = species: Danio rerio; test: Cytotoxicity in zebrafish embryo assessed as survival rate at 50 ppm after 80 mins relative to control; assay type: functional
Danio rerio [2] = species: Danio rerio; test: Cytotoxicity in zebrafish embryo assessed as survival rate at 25 ppm after 80 mins relative to control; assay type: functional
Danio rerio [3] = species: Danio rerio; test: Cytotoxicity in zebrafish embryo assessed as survival rate at 10 ppm after 80 mins relative to control; assay type: functional
Escherichia coli = test: Antibacterial activity against Escherichia coli assessed as inhibition of microbial growth; assay type: functional, organism-based
[4] = Drug accumulation in zebrafish embryo intestinal villi at 10 ppm incubated for 80 mins; assay type: ADME, Danio rerio; settings: in vivo
[5] = Drug accumulation in zebrafish embryo skin at 10 ppm incubated for 80 mins; assay type: ADME, Danio rerio, Zone of skin; settings: in vivo
[6] = Drug accumulation in zebrafish embryo muscle at 10 ppm incubated for 80 mins; assay type: ADME, Danio rerio, Muscle tissue; settings: in vivo
[7] = Drug accumulation in zebrafish embryo stomach at 10 ppm incubated for 80 mins; assay type: ADME, tissue-based, Danio rerio; settings: in vivo

| Structure (SMILES) | Survival (Danio rerio [1]) [%] | Survival (Danio rerio [2]) [%] | Survival (Danio rerio [3]) [%] | growth inhibition (GI) (Escherichia coli) | Drug uptake [4] | Drug uptake [5] | Drug uptake [6] | Drug uptake [7] |
| --- | --- | --- | --- | --- | --- | --- | --- | --- |
| COC(=O)[C@H]1[C@@H](C(=O)Oc2ccc(/C=C/c3cc(O)cc(O)c3)cc2)[C@@H]2CC[C@H]1O2 | 95.8 | 99.2 | 99.2 |  |  |  |  |  |
| O=C1OC(=O)C2C3CCC(O3)C12 (stereo unspecified) [DEMETHYL-CANTHARIDIN] | 90.8 | 96.7 | 99.2 | inactive |  |  |  |  |
| CCN(CC)c1ccc2c(-c3ccccc3C(=O)NCCNC(=O)[C@@H]3[C@H](C(=O)OC)[C@H]4CC[C@@H]3O4)c3ccc(=[N+](CC)CC)cc-3oc2c1 |  |  |  |  | Active | Not Active | Not Active | Active |
